Read-outs that look alike come from different tables or passages of the source.
Columns and labels:
[1] = Stability of 2.3 mM furimazine at 37° C. in the dark with or without 200 mM thionucleoside, luminescence with NANOLUC enzyme; format: physicochemical; details: 50% propylene glycol:50% ethanol
Method: Specifically, a stock solution of furimazine in 50% propylene glycol:50% ethanol (v/v) was prepared, in which the final concentration of furimazine by absorbance was 4.6 mM. The furimazine stock solution was then diluted 1:1 in 50% propylene glycol:50% ethanol (v/v) to create a control solution without the additives ATT, TAK-0014 and TAK-0002 (i.e., “no additive furimazine” control) and containing 2.3 mM furimazine. 400 mM stock solutions of ATT, TAK-0014 and TAK-0002 were prepared in 50% propylene glycol:50% ethanol (v/v). Each of the ATT, TAK-0014 and TAK-0002 stock solutions was then diluted 1:1 in the 4.6 mM furimazine stock solution to yield solutions containing 200 mM ATT, TAK-0014 or TAK-0002, and 2.3 mM furimazine.
Each sample was separated into multiple amber tubes and incubated at 37° C. in a dark incubator (i.e., in the absence of light). Aliquots were taken from each sample at various time points and stored at −20° C. in the dark (i.e., in the absence of light) until all time points were collected.
To measure luminescence in the aliquots, each aliquot was diluted 1:50 in buffer (NANOGLO buffer, Promega Corporation) to yield 46 μM furimazine. These diluted aliquots were further diluted 1:10 in buffer (NANOGLO buffer, Promega Corporation) to yield 4.6 μM furimazine. 504 of each dilution (i.e., the twice diluted (0.1) aliquots) was mixed with 504, of CO2-independent media+10% fetal bovine serum (FBS) and 0.4 ng/mL luminogenic enzyme (NANOLUC enzyme, Promega Corporation). Luminescence was measured on a luminometer (GLOMAX Multi Plus luminometer, Promega Corporation). Relative light units (RLUs) were normalized for each time point by the RLU value at the 0 days time point. The percent activity from the 0 days time point (i.e., t=0) was plotted against time (days) for each sample as shown in FIG. 15A. In FIG. 15A, B-ATT denoted TAK-0002 and E-ATT denoted TAK-0014.
Error in Table 15 was the standard error from a regression calculation and Fz denoted furimazine, B-ATT denoted TAK-0002, and E-ATT denoted TAK-0014.

[2] = Stability of 1.25 mM coelenterazine in 50% ethanol and 50% propylene glycol with or without 225 mM ATT, HPLC and Arrhenius plots; format: physicochemical; details: for half-life at 1.25 mM: solution of 50% ethanol and 50% propylene glycol
Method: The stability of coelenterazine in the presence and absence of ATT was measured over time at different temperatures. Specifically, 1.25 mM coelenterazine was present in a solution of 50% ethanol and 50% propylene glycol (i.e., the solution without ATT) or a solution of 50% ethanol and 50% propylene glycol with 225 mM ATT (i.e., the solution with ATT). These two solutions were incubated at −20° C., room temperature (RT), 40° C., or 60° C. and analyzed at 0 days, 1 day, 3 days, 7 days, 15 days, and 30 days.
Following incubation, high performance liquid chromatography (HPLC) was utilized to identify the components of the respective solutions at each time point. Specifically, an Agilent 1100 HPLC instrument was used and equipped with a quaternary pump, thermostatted autosampler and column compartment, and a G1311B diode-array detector. The column used was a Synergi-MAX-RP (Phenomenex, Torrance, Calif.) 100 AÅ 50×4.6 2.5 μm. The run on the HPLC was a gradient run with 0.1% TFA in water and acetonitrile. Absorbance was measured at 262 nanometers (nm). Standards of coelenterazine and its known degradants were run to confirm both the retention time and absorbance trace. 5 μl of each solution was injected and the retention time of coelenterazine was 3.9 minutes at room temperature.
The results of the HPLC analysis are shown below in Tables 1 and 2 and FIGS. 1A and 1B, in which the values are reported as relative peak area percentage at 262 nm (i.e., the lamba max of the substrate). […] In each of FIGS. 1A and 1B, diamond is 1.25 mM coelenterazine incubated over time with or without 225 mM ATT, respectively, at −20° C., triangle is 1.25 mM coelenterazine incubated over time with or without 225 mM ATT, respectively, at room temperature (RT), star is 1.25 mM coelenterazine incubated over time with or without 225 mM ATT, respectively, at 40° C., and cross is 1.25 mM coelenterazine incubated over time with or without 225 mM ATT, respectively, at 60° C.
From the HPLC analysis, the half-life of coelenterazine in the presence of ATT at 40° C. and 60° C. was calculated to be 23 days and 5 days, respectively, while the half-life of coelenterazine in the absence of ATT at 40° C. and 60° C. was calculated to be 9.5 days and 2 days, respectively (see Table 3 below).
Additionally, Arrhenius plots were generated for coelenterazine in the presence and absence of ATT to calculate the half-life of coelenterazine at various temperatures. The Arrhenius equation is as follows: […]
In FIG. 7, the slope was −8636.59, the intercept was 24.1199, and R^2 was 0.9983.
In FIG. 8, the slope was −7382.51, the intercept was 21.2598, and R^2 was 0.9570.

[3] = decomposition of coelenterazine

## O=c1[nH]c(=S)[nH]nc1Cc1ccccc1 [TAK-0002, 6-benzyl-3-sulfanyl-1,2,4-triazin-5-ol]
[1]
  stabilization of furimazine against decomposition in the absence of light: stabilized furimazine against decomposition in the absence of light

## O=c1c(Cc2ccc(O)cc2)nc2c(Cc3ccccc3)[nH]c(-c3ccc(O)cc3)cn1-2 [Coelenterazine (27-957-28), coelenterazine]
[2]; 40° C., 0 days
  relative peak area percentage at 262 nm: 96.5%
[2]; 40° C., 1 day
  relative peak area percentage at 262 nm: 92.2%
[2]; 40° C., 3 days
  relative peak area percentage at 262 nm: 84.9%
[2]; 40° C., 15 days
  relative peak area percentage at 262 nm: 12.6%
[2]; 60° C., 0 days
  relative peak area percentage at 262 nm: 96.5%
[2]; 60° C., 1 day
  relative peak area percentage at 262 nm: 79.6%
[2]; 60° C., 3 days
  relative peak area percentage at 262 nm: 36.8%
[2]; RT, 0 days
  relative peak area percentage at 262 nm: 96.5%
[2]; RT, 1 day
  relative peak area percentage at 262 nm: 96.1%
[2]; RT, 3 days
  relative peak area percentage at 262 nm: 94.0%
[2]; RT, 7 days
  relative peak area percentage at 262 nm: 91.0%
[2]; RT, 15 days
  relative peak area percentage at 262 nm: 87.4%
[2]; RT, 30 days
  relative peak area percentage at 262 nm: 57.7%
[2]; [3]
  Arrhenius plot intercept: 21.2598
  Arrhenius plot slope: −7382.51
[2]; 20° C., read-out: T1/2 Calculated from Arrhenius (converted)
  half-life at 1.25 mM: 852 h
[2]; 40° C., read-out: T1/2 Calculated from Arrhenius (converted)
  half-life at 1.25 mM: 170 h
[2]; 40° C., read-out: T1/2 Estimated from graph (converted)
  half-life at 1.25 mM: 228 h
[2]; 60° C., read-out: T1/2 Calculated from Arrhenius (converted)
  half-life at 1.25 mM: 40.8 h
[2]; 60° C., read-out: T1/2 Estimated from graph (converted)
  half-life at 1.25 mM: 48 h
[2]; −20° C., read-out: T1/2 Calculated from Arrhenius (converted)
  half-life at 1.25 mM: 46500 h
[2]; −20° C., 0 days
  relative peak area percentage at 262 nm: 96.5%
[2]; −20° C., 1 day
  relative peak area percentage at 262 nm: 97.2%
[2]; −20° C., 3 days
  relative peak area percentage at 262 nm: 96.4%
[2]; −20° C., 7 days
  relative peak area percentage at 262 nm: 96.5%
[2]; −20° C., 15 days
  relative peak area percentage at 262 nm: 96.5%
[2]; −20° C., 30 days
  relative peak area percentage at 262 nm: 86.2%

## CCc1n[nH]c(=S)[nH]c1=O [TAK-0014]
[1]
  stabilization of furimazine against decomposition in the absence of light: stabilized furimazine against decomposition in the absence of light

— patent US9676997B2, “Compositions and methods for stabilizing luminogenic substrates” (Promega Corporation, priority 2014, dated 2017)
